# Assay results taken from PubChem BioAssay AID2060354 (Molecular Pharmacology Branch, DTP, NCI, 2025).
# Test system: 519858-162-T-J1-PDC spheroid growth inhibition
# Assay: Anticancer human tumor 519858-162-T-J1-PDC patient-derived colon adenocarcinoma cell line growth inhibition [TAK]
# Details: spheroids with HUVEC and MSC; for IC50: curve of first compound; for viability, T/C: stronger effect = lower value
# From the text: Combinatorial screen of targeted agents with TAK-243 and ipatasertib in multi-cell type tumor spheroids
# A high-throughput screen of multi-cell type tumor spheroids was designed to identify active combinations of targeted small molecules and TAK-243 or ipatasertib. Complex spheroids include a stromal component modeled by human endothelial cells (HUVEC) and fibroblasts modeled by human mesenchymal stem cells (MSCs). The concentration ranges selected for each drug and investigational agent were based upon clinically achievable concentrations if the clinical Cmax of the agent was known.
# Compounds. The drugs and investigational agents: TAK-243 (785004), ipatasertib (767898), everolimus (733504), selumetinib (741078), bortezomib (756655), trametinib (758246), ixazomib (758254), vemurafenib (761431), dabrafenib (764134), sapanisertib (764658), alpelisib (765974), and copanlisib (816437), were obtained from the National Cancer Institute (NCI) Developmental Therapeutics Program Chemical Repository. The FDA-approved anticancer drug set is available from the NCI Developmental Therapeutics Program. […] The stock solutions were prepared in dimethyl sulfoxide (DMSO, Sigma-Aldrich, St. Louis, MO, cat. D2650) at 800-fold the tested concentration and stored at -70 degrees C prior to their use. All drugs and investigational agents were tested over a range starting from a high concentration at or near the clinical Cmax and decreasing in half-log increments. If the clinical Cmax for an agent had not been determined, the highest concentration tested was 10 microM.
# NCI60 Cell Culture. NCI60 cell lines were obtained from the NCI Developmental Therapeutics Program Tumor Repository. For each lot of cells, the Repository performed Applied Biosystems AmpFLSTR Identifiler testing with PCR amplification to confirm consistency with the published Identifier STR profile for each cell line. Cells were kept in continuous culture for no more than 20 passages. The optimal seeding densities for each of the cell lines at each time point assessed were determined prior to performing the concentration response studies. Briefly, the NCI60 human tumor lines were grown as monolayers in RPMI 1640 medium supplemented with 10% FBS and 2 mmol/L L-glutamine.
# An additional 2 lines were from the NCI60 cell line panel including melanomas, MALME-3M and SK-MEL-2. Pooled donor human umbilical vein endothelial cells (HUVEC, Lonza, cat. CC-2519) and human mesenchymal stem cells (hMSC, Lonza, cat. PT-2501) were purchased from Lonza (Walkersville, MD).
# PDMR cell lines were grown in complete medium (DC medium): Dulbecco's modified Eagle's medium (DMEM)/F12 supplemented with 5% fetal bovine serum (FBS), 2 mM L-glutamine, 100 U/mL penicillin and 100 µg/ml streptomycin, 0.4 µg/ml hydrocortisone, 10 ng/ml epidermal growth factor (EGF) recombinant human protein, 24 µg/mL adenine, and 0.1 mg/mL primocin. During culture from frozen stock vials, PDMR cells were cultured in the same medium containing 10 µM Y-27632 (see Table 3). The PDCs were cultured in complete DMEM/F12 media without 10 microM Y-27632 dihydrochloride for at least two passages prior to the screen. The pooled donor HUVEC and hMSC were cultured in endothelial cell growth medium 2 (PromoCell, Heidelberg, Germany, cat. C-22011) and mesenchymal stem cell growth medium 2 (PromoCell, cat. C-28009), respectively. For all experiments, HUVEC and hMSC were used at passages </=5.
# For the pre-screen, cell seeding densities were determined from a titration spanning the range from 5,000 to 313 cells per well. The mct-spheroids including 60% malignant cells, 25% HUVEC and 15% MSC dispensed as a mixture into U-bottom Ultra-Low Attachment 384-well plates (Corning, NY)
# High-throughput Drug Combination Screening.
# Prior to their inoculation into 384-well plates, malignant cells, HUVEC, and hMSC were removed from T flasks using TrypLE express (Thermo Fisher Scientific, cat. 12605036) and harvested by centrifugation for 5 min at 233 x g. […]
# [1] = second compound 0.3 µM, first compound 0.000316 µM
# [2] = second compound 0.3 µM, first compound 0.001 µM
# [3] = second compound 0.3 µM, first compound 0.00316 µM
# [4] = second compound 0.3 µM, first compound 0.01 µM
# [5] = second compound 0.949 µM, first compound 0.000316 µM
# [6] = second compound 0.949 µM, first compound 0.001 µM
# [7] = second compound 0.949 µM, first compound 0.00316 µM
# [8] = second compound 0.949 µM, first compound 0.01 µM
# [9] = second compound 3 µM, first compound 0.000316 µM
# [10] = second compound 3 µM, first compound 0.001 µM
# [11] = second compound 3 µM, first compound 0.00316 µM
# [12] = second compound 3 µM, first compound 0.01 µM
# [13] = second compound 9.49 µM, first compound 0.000316 µM
# [14] = second compound 9.49 µM, first compound 0.001 µM
# [15] = second compound 9.49 µM, first compound 0.00316 µM
# [16] = second compound 9.49 µM, first compound 0.01 µM
# [17] = second compound 30 µM, first compound 0.000316 µM
# [18] = second compound 30 µM, first compound 0.001 µM
# [19] = second compound 30 µM, first compound 0.00316 µM
# [20] = second compound 30 µM, first compound 0.01 µM
# 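Further: spheroids exposed to drugs for 7 days.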
SMILES,IC50 (second compound 0.3 µM) [nM],IC50 (second compound 0.949 µM) [nM],IC50 (second compound 3 µM) [nM],IC50 (second compound 9.49 µM) [nM],IC50 (second compound 30 µM) [nM],"viability, T/C [1] [%]","viability, T/C [2] [%]","viability, T/C [3] [%]","viability, T/C [4] [%]","viability, T/C [5] [%]","viability, T/C [6] [%]","viability, T/C [7] [%]","viability, T/C [8] [%]","viability, T/C [9] [%]","viability, T/C [10] [%]","viability, T/C [11] [%]","viability, T/C [12] [%]","viability, T/C [13] [%]","viability, T/C [14] [%]","viability, T/C [15] [%]",further results
CC(C)CC(NC(=O)C(Cc1ccccc1)NC(=O)c1cnccn1)B(O)O (stereo not given) + CC(C)NCC(C(=O)N1CCN(c2ncnc3c2C(C)CC3O)CC1)c1ccc(Cl)cc1,> 10,> 10,> 10,> 10,> 10,75.7,92.6,83.2,63.8,86.4,88.9,95.6,69.7,67.9,84.4,78.7,77.1,110,83.2,66.2,"viability, T/C (second compound 0.3 µM, first compound 31.6 pM): 84.6%; viability, T/C (second compound 0.3 µM, first compound 0.0001 µM): 80.4%; viability, T/C (second compound 0.949 µM, first compound 31.6 pM): 83.7%; viability, T/C (second compound 0.949 µM, first compound 0.0001 µM): 97.6%; viability, T/C (second compound 3 µM, first compound 31.6 pM): 84.4%; viability, T/C (second compound 3 µM, first compound 0.0001 µM): 84.7%; viability, T/C (second compound 9.49 µM, first compound 31.6 pM): 100%; viability, T/C (second compound 9.49 µM, first compound 0.0001 µM): 88.2%; viability, T/C [16]: 82.8%; viability, T/C (second compound 30 µM, first compound 31.6 pM): 85.2%; viability, T/C (second compound 30 µM, first compound 0.0001 µM): 97.1%; viability, T/C [17]: 96.7%; viability, T/C [18]: 88.4%; viability, T/C [19]: 85.2%; viability, T/C [20]: 78%"
CC(C)CC(NC(=O)CNC(=O)c1cc(Cl)ccc1Cl)B1OC(=O)CC(CC(=O)O)(C(=O)O)O1 (stereo not given) + CC(C)NCC(C(=O)N1CCN(c2ncnc3c2C(C)CC3O)CC1)c1ccc(Cl)cc1,> 100,> 100,> 100,> 100,> 100,94.4,101,99,79,114,91.7,79.5,81.3,101,88.5,92.5,71.3,90,100,80.4,"viability, T/C (second compound 0.3 µM, first compound 0.0316 µM): 95.9%; viability, T/C (second compound 0.3 µM, first compound 0.1 µM): 59.7%; viability, T/C (second compound 0.949 µM, first compound 0.0316 µM): 88%; viability, T/C (second compound 0.949 µM, first compound 0.1 µM): 67.7%; viability, T/C (second compound 3 µM, first compound 0.0316 µM): 81.7%; viability, T/C (second compound 3 µM, first compound 0.1 µM): 82.9%; viability, T/C [16]: 77.2%; viability, T/C (second compound 9.49 µM, first compound 0.0316 µM): 92.5%; viability, T/C (second compound 9.49 µM, first compound 0.1 µM): 71.1%; viability, T/C [17]: 90.5%; viability, T/C [18]: 87.7%; viability, T/C [19]: 108%; viability, T/C [20]: 79.5%; viability, T/C (second compound 30 µM, first compound 0.0316 µM): 73.3%; viability, T/C (second compound 30 µM, first compound 0.1 µM): 78.6%"
